# Data from patent publication US6287840A (Axys Pharmaceuticals, Inc., priority 1999, dated 2001).
# Peptide text beside a SMILES is read from it. * marks the point of attachment. X1 = CS(=O)(=O)C=CC(CC(=O)O)N*
# Key:
# [1] = target: T1, Cathepsin B from human placenta (Homo sapiens, UniProt P07858); assay: Inhibition of cathepsin B, Z-Arg-Arg-AMC fluorescence progress curves; assay type: biochemical; conditions: for kobs /[I]* (approximate second-order inactivation constant): values marked *; for kobs /[I]* (approximate second-order inactivation constant) / k/KI (kirr/KI): 25° C., pH 6.2; for k/KI (kirr/KI): values without asterisk
# T1 construct: Cathepsin B from human placenta, obtained from Sigma; purchased Sigma; host or cells: human placenta (tissue)
# Protocol: Stock solutions of the various inhibitors (10 mM) were made in DMF; dilutions were made in the same solvent. Cathepsin B from human placenta, obtained from Sigma, was approximately 10 nM in the assay. The assay buffer contained 50 mM phosphate at pH 6.2, 2.5 mM dithiothreitol (DTT), and 2.5 mM ethylenediaminetetraacetic acid (EDTA). The substrate for cathepsin B was 50 μM Z-Arg-Arg-AMC (carbobenzyloxyarginylarginylaminomethylcoumarin). The assays were initiated at 25° C. by addition of enzyme to 2 mL of assay buffer containing the substrate and the various inhibitors (30-0.001 (μM). The increase in fluorescence at 460 nm with excitation at 380 nm was followed with time, and the assay was linear throughout the range observed. Inactivation of cathepsin B was indicated by a downward curve in the increase in fluorescence with time. In the absence of inhibitors, the enzymatic production of free AMC was linear throughout the time course of inactivation examined. Data points were collected over at least 3 half-times of inactivation, and in duplicate. The inhibition progress curves were analyzed using non-linear curve fitting software to compute the kobs values. Approximate second-order inactivation constants (kobs /[I]) were calculated for all compounds. For selected inhibitors, plots of 1/[I] vs. 1/kobs yielded the true constants kirr, KI, and kirr /KI, and were corrected for the presence of substrate by dividing KI (app.) by {1+[S]/Km }.
# Cloned cathepsin S = target: T2, Cloned cathepsin S (Homo sapiens, UniProt P25774); assay: Inhibition of cathepsin S, Z-Val-Val-Arg-AMC fluorescence progress curves; assay type: biochemical; conditions: for kobs /[I]* (approximate second-order inactivation constant) / kinact/KI: values marked *; for kinact/KI: read-out: kobs /[I]* (approximate second-order inactivation constant)
# T2 construct: made in house
# T2 sequence (P25774 115-331): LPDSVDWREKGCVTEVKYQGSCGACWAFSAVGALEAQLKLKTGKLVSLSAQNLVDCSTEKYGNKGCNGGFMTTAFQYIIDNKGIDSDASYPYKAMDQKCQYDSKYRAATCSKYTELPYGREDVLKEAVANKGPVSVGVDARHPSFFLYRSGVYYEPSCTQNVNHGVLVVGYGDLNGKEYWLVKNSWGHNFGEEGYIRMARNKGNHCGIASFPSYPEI
# Protocol: Stock solutions of the various inhibitors (10 mM) were made in DMF; dilutions were made in the same solvent. Cloned cathepsin S, (see Bromme et al., J. Biol. Chem. 268(&): 4832-4838 (1993)) was less than 1 nM in the assay. The assay buffer contained 100 mM phosphate at pH 6.5, 0.01% Triton, 2.5 mM dithiothreitol (DTT), and 2.5 mM ethylenediaminetetraacetic acid (EDTA). The substrate for cathepsin S was 10 μM Z-Val-Val-Arg-AMC (carbobenzyloxyvalinylvalinylarginylaminomethylcoumarin). The assays were initiated at 25° C. by addition of enzyme to 2 mL of assay buffer containing the substrate and the various inhibitors (30-0.001 μM). The increase in fluorescence at 460 nm with excitation at 380 nm was followed with time. Inactivation of cathepsin S was indicated by a downward curve in the increase in fluorescence with time. In the absence of inhibitors, the enzymatic production of free AMC was linear throughout the time course of inactivation examined. Data points were collected over at least 3 half-times of inactivation. The inhibition progress curves were analyzed using non-linear curve fitting software to compute the kobs values. Approximate second-order inactivation constants (kobs /[I]) were calculated for all compounds. For selected inhibitors, plots of 1/[I] vs. 1/kobs yielded the true constants kirr, KI, and kirr /KI, and were corrected for the presence of substrate by dividing KI (app.) by {1+[S]/Km}.
# [2] = target: T3, Cathepsin L from rat liver (Rattus norvegicus, UniProt P07154); assay: Inhibition of cathepsin L, Z-Phe-Arg-AMC fluorescence progress curves; assay type: biochemical; conditions: for kobs /[I]* (approximate second-order inactivation constant): values marked *; for kobs /[I]* (approximate second-order inactivation constant) / k/KI (kirr/KI): 25° C., pH 6.2; for Ki: corrected for substrate; for k/KI (kirr/KI): values without asterisk
# T3 construct: Cathepsin L from rat liver; from tissue; host or cells: rat liver
# T3 sequence (P07154 114-288 limits assumed): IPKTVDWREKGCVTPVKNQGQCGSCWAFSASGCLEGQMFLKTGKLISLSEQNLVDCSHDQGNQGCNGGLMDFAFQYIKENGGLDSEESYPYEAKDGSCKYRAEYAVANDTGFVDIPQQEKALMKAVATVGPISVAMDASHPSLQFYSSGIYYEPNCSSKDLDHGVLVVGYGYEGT
# T3 sequence (P07154 291-334 limits assumed): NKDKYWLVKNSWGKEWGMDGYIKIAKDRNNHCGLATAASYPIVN
# Protocol: (§1) Stock solutions of the various inhibitors (10 mM) were made in DMF; dilutions were made in the same solvent. Cathepsin L from rat liver, (see Mason et al., Biochem. J. 226:233-241 (1985)) was approximately 1 nM in the assay. The assay buffer contained 50 mM phosphate at pH 6:2, 2.5 mM dithiothreitol (DTT), and 2.5 mM ethylenediaminetetraacetic acid (EDTA). The substrate for cathepsin L was 5 μM Z-Phe-Arg-AMC (carbobenzyloxyphenylalanylarginylaminomethylcoumarin). The assays were initiated at 25° C. by addition of enzyme to 2 mL of assay buffer containing the substrate and the various inhibitors (30-0.001 μM). The increase in fluorescence at 460 nm with excitation at 380 nm was followed with time. Inactivation of cathepsin L was indicated by a downward curve in the increase in fluorescence with time. In the absence of inhibitors, the enzymatic production of free AMC was linear throughout the time course of inactivation examined. Data points were collected over at least 3 half-times of inactivation. The inhibition progress curves were analyzed using non-linear curve fitting software to compute the kobs values. Approximate second-order inactivation constants (kobs /[I]) were calculated for all compounds. For selected inhibitors, plots of 1/[I] vs. 1/kobs yielded the true constants kirr, KI, and kirr/KI and were corrected for the presence of substrate by dividing KI (app.) by (1+[S]/Km).
# cruzain, from T. cruzi = cruzain, from T. cruzi (Trypanosoma cruzi, UniProt P25779); assay: Inhibition of cruzain, as for cathepsin L; assay type: biochemical
# Chain of cruzain, from T. cruzi (P25779 123-337 limits assumed): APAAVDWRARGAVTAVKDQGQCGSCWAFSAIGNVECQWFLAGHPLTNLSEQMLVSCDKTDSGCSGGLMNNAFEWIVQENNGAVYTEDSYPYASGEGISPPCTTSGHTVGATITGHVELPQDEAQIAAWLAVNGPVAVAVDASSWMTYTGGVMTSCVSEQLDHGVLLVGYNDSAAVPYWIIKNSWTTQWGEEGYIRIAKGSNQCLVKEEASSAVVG
# Protocol: as §1
# Inhibition of cruzain, from T. cruzi, (see Eakin et at., J. Biol. Chem. 268(9): 6115-6118 (1993)) proceeded exactly as for cathepsin L, outlined above, using an enzyme concentration of 1 nM.
# [3] = test system: Trypanosoma cruzi amastigote infected macrophages; assay: In vitro antiprotozoal activity, Trypanosoma cruzi; assay type: cell-based
# Protocol: (§2) In this table, the in vitro antiprotozoal activities of the indicated compounds were measured as percentage inhibition of Leishmania donovani amastigote infecteda mouse peritoneal macrophages, Trypanosoma cruzi amastigote infected macrophages, and Trypanosoma brucei extracellular bloodstream forms.
# [4] = test system: Trypanosoma brucei extracellular bloodstream forms; assay: In vitro antiprotozoal activity, Trypanosoma brucei; assay type: cell-based
# Protocol: as §2
# [5] = test system: Leishmania donovani amastigote infected mouse peritoneal macrophages; assay: In vitro antiprotozoal activity, Leishmania donovani; assay type: cell-based; set-up: key to percentage inhibition, L. donovani: the term "T" indicates the molecule to have displayed cytotoxicity
# Protocol: as §2
molecule,measurement,setting,value
(S)-(E)-3-(4-morpholinecarbonylphenylalanyl)amino-1-(4-bromophenylsulfonyl)-5-phenyl-1-pentene [Mu-Phe-HphVSPhBr],kobs /[I]* (approximate second-order inactivation constant),[1],"15,500 M^-1 sec^-1"
Boc-phenylalanyl-homophenylalanyl-p-nitrostyryl,kobs /[I]* (approximate second-order inactivation constant),"Cloned cathepsin S; 25° C., pH 6.5","40,100 M^-1 sec^-1"
(S)-(E)-3-(4-morpholinecarbonyl-2-naphthylalanyl)amino-5-phenyl-1-phenylsulfonyl-1-pentene [Mu-Np-HphVSPh],kobs /[I]* (approximate second-order inactivation constant),[1],"86,000 M^-1 sec^-1"
same,kobs /[I]* (approximate second-order inactivation constant),[2],"1,000,000 M^-1 sec^-1"
same,k/KI (kirr/KI),"cruzain, from T. cruzi; values without asterisk","218,000 M^-1 sec^-1"
CC(=O)NC(Cc1ccc(O)cc1)C(=O)NC(Cc1ccc(O)cc1)C(=O)NC(C(=O)NC(C)C(=O)NC(C=CS(C)(=O)=O)CC(=O)O)C(C)C (stereo not drawn) [Ac-Tyr-Tyr-Val-Ala-AspVSMe] (Ac-YYVA-X1; configuration not given here),k/KI (kirr/KI),[1],0 M⁻¹ s⁻¹
(S)-(E)-Ethyl8-(benzyloxycarbonyl)amino-4-(4-morpholinecarbonylphenylalanyl)amino-2-octenoate [Mu-Phe-Lys(Z)VEOEt],kirr,Cloned cathepsin S,0.13 s⁻¹
same,Ki,Cloned cathepsin S; corrected for substrate,1.3 µM
same,k/KI (kirr/KI),"Cloned cathepsin S; values without asterisk, 25° C., pH 6.5","100,000 M^-1 sec^-1"
same,kirr,[1],0.13 s⁻¹
same,Ki,[1]; corrected for substrate,32 µM
same,k/KI (kirr/KI),[1],4100 M⁻¹ s⁻¹
same,kirr,[2],0.87 s⁻¹
same,Ki,[2],6.2 µM
same,k/KI (kirr/KI),[2],"13,900 M^-1 sec^-1"
"O=C(NCCCC[C@@H](C=C(F)S(=O)(=O)c1ccccc1)NC(=O)[C@H](Cc1ccccc1)NC(=O)N1CCOCC1)OCc1ccccc1 [Mu-Phe-Lys(Z)fVSPh, (S)-7-(benzyloxycarbonyl)amino-3-(4-morpholinecarbonylphenylalanyl)amino-1-fluoro-1-phenylsulfonyl-1-heptene]",kobs /[I]* (approximate second-order inactivation constant),"Cloned cathepsin S; 25° C., pH 6.5","10,700 M^-1 sec^-1"
same,kobs /[I]* (approximate second-order inactivation constant),[1],"2,000 M^-1 sec^-1"
"CC(=O)N[C@@H](CC(C)C)C(=O)N[C@@H](CC(C)C)C(=O)N[C@H](/C=C/S(=O)(=O)c1ccccc1)Cc1ccc(O)cc1 [Ac-Leu-Leu-TyrVSPh, (S)-(E)-3-(acetylleucylleucyl)amino-4-(4-hydroxyphenyl)-1-phenylsulfonyl-1-butene]",kinact/KI,"Cloned cathepsin S; 25° C., pH 6.5",100000 M⁻¹ s⁻¹
"O=C(N[C@@H](/C=C/S(=O)(=O)c1ccccc1)CCc1ccccc1)C(Cc1ccccc1)NC(=O)N1CCOCC1 (stereo partly drawn) [Mu-Phe-D-HphVSPh, (R)-(E)-3-(4-morpholinecarbonylphenylalanyl)amino-5-phenyl-1-phenylsulfonyl-1-pentene]",kobs /[I]* (approximate second-order inactivation constant),"Cloned cathepsin S; 25° C., pH 6.5","68,500 M^-1 sec^-1"
same,kobs /[I]* (approximate second-order inactivation constant),[2],"4,500 M^-1 sec^-1"
Cl.NC(C=CS(=O)(=O)c1ccccc1)CCCCNC(=O)OCc1ccccc1 (stereo not drawn) [HCl.(e-Z)LysVSPh],"ED50, T. cruzi",[3],18.34 µM
same,"percentage inhibition, T. cruzi",[3]; 3 uM,2.7%
same,"percentage inhibition, T. cruzi",[3]; 10 uM,10.6%
same,"percentage inhibition, T. cruzi",[3]; 30 uM,82.8%
same,"percentage inhibition, T. cruzi",[3]; 90 uM,97.8%
same,"ED50, T. brucei",[4],8 µM
same,"percentage inhibition, T. brucei",[4]; 1 uM,7.6%
same,"percentage inhibition, T. brucei",[4]; 3 uM,13%
same,"percentage inhibition, T. brucei",[4]; 10 uM,39.3%
same,"percentage inhibition, T. brucei",[4]; 30 uM,100%
same,"percentage inhibition, T. brucei",[4]; 90 uM,100%
same,"percentage inhibition, L. donovani",[5]; 3 uM,100%
same,"percentage inhibition, L. donovani",[5]; 10 uM,100%
same,"percentage inhibition, L. donovani",[5]; 30 uM,T
same,"percentage inhibition, L. donovani",[5]; 90 uM,T
"CN(C)S(=O)(=O)N[C@@H](Cc1ccccc1)C(=O)N[C@H](/C=C/S(=O)(=O)c1ccccc1)CCc1ccccc1 [DimSam-Phe-HphVSPh, (S)-(E)-3-(dimethylsulfamoylphenylalanyl)amino-5-phenyl-1-phenylsulfonyl-1-pentene]",kinact/KI,"Cloned cathepsin S; 25° C., pH 6.5",920000 M⁻¹ s⁻¹
CC(C)C[C@H](NC(=O)OCc1ccccc1)C(=O)N[C@H](/C=C/S(=O)(=O)c1ccccc1)Cc1ccccc1,kobs /[I]* (approximate second-order inactivation constant),"Cloned cathepsin S; 25° C., pH 6.5","3,000,000 M^-1 sec^-1"
Cl.NC(Cc1ccccc1)C(=O)NC(C=CS(=O)(=O)c1ccccc1)CCc1ccccc1 (stereo not drawn) [HCl.Phe-HphVSPh],kobs /[I]* (approximate second-order inactivation constant),"Cloned cathepsin S; 25° C., pH 6.5","35,000 M^-1 sec^-1"
same,kobs /[I]* (approximate second-order inactivation constant),"cruzain, from T. cruzi; values marked *","14,600 M^-1 sec^-1"
CS(=O)(=O)/C=C/[C@@H](N)Cc1ccccc1.Cl [HCl.PheVSMe],"percentage inhibition, T. cruzi",[3]; 3 uM,0%
same,"percentage inhibition, T. cruzi",[3]; 10 uM,0%
same,"percentage inhibition, T. cruzi",[3]; 30 uM,0%
same,"percentage inhibition, T. cruzi",[3]; 90 uM,17.3%
same,"percentage inhibition, T. brucei",[4]; 3 uM,0%
same,"percentage inhibition, T. brucei",[4]; 10 uM,0%
same,"percentage inhibition, T. brucei",[4]; 30 uM,0%
same,"percentage inhibition, T. brucei",[4]; 90 uM,0%
same,"percentage inhibition, L. donovani",[5]; 3 uM,100%
same,"percentage inhibition, L. donovani",[5]; 10 uM,100%
same,"percentage inhibition, L. donovani",[5]; 30 uM,100%
same,"percentage inhibition, L. donovani",[5]; 90 uM,100%
"O=C(/C=C/[C@H](CCc1ccccc1)NC(=O)C(Cc1ccccc1)NC(=O)N1CCOCC1)NC(Cc1ccccc1)C(=O)O (stereo partly drawn) [Mu-Phe-HphVAM-PheOH, (S)-(E)-(N-phenylalanine)-4-(4-morpholinecarbonylphenylalanyl)amino-6-phenyl-2-hexenamide]",kobs /[I]* (approximate second-order inactivation constant),"Cloned cathepsin S; 25° C., pH 6.5","10,600 M^-1 sec^-1"
same,kobs /[I]* (approximate second-order inactivation constant),[1],600 M⁻¹ s⁻¹
"Br.CCOC(=O)/C=C/[C@H](CCCCN)NC(=O)[C@H](Cc1ccccc1)NC(=O)N1CCOCC1 [Mu-Phe-LysVEOEt.HBr, (S)-(E)-Ethyl 8-amino-4-(4-morpholinecarbonylphenylalanyl)amino-2octenoate hydrobromide]",kobs /[I]* (approximate second-order inactivation constant),[1],650 M⁻¹ s⁻¹
same,kirr,[2],0.085 s⁻¹
same,Ki,[2],24.2 µM
same,k/KI (kirr/KI),[2],3500 M⁻¹ s⁻¹
